PubChem BioAssay AID330 (DTP/NCI, 2004)
“And” between values parts separate entries of the source, which are not always exact repeats. Identical values can stand only once. Inconclusive results and toxic doses are left out.

Tested on: P388 leukemia ip, CD2F1 mice, survival T/C
Test: NCI In Vivo Anticancer Drug Screen. Data for tumor model P388 Leukemia (intraperitoneal) in CD2F1 (CDF1) mice
Conditions: endpoint: median survival time, higher = longer survival
In short: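 Mice carrying the transplanted tumor received test compound or vehicle. Survival was recorded in each group, and the value is the treated-group measurement divided by that of the vehicle-treated control group.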

[1] = dose: 50.0 mg/kg/injection, schedule: Q01DX005 (ip), vehicle: saline with Tween-80
[2] = dose: 100.0 mg/kg/injection, schedule: Q01DX005 (ip), vehicle: saline with Tween-80
[3] = dose: 200.0 mg/kg/injection, schedule: Q01DX005 (ip), vehicle: saline with Tween-80
[4] = dose: 50.0 mg/kg/injection, schedule: Q01DX009 (ip), vehicle: saline
[5] = dose: 100.0 mg/kg/injection, schedule: Q01DX009 (ip), vehicle: saline
[6] = dose: 25.0 mg/kg/injection, schedule: Q01DX009 (ip), vehicle: Klucel (hydroxypropylcellulose) (HPC)
[7] = dose: 60.0 mg/kg/injection, schedule: Q01DX005 (ip), vehicle: saline with Tween-80
[8] = dose: 120.0 mg/kg/injection, schedule: Q01DX005 (ip), vehicle: saline with Tween-80
[9] = dose: 240.0 mg/kg/injection, schedule: Q01DX005 (ip), vehicle: saline with Tween-80
[10] = dose: 12.5 mg/kg/injection, schedule: Q01DX009 (ip), vehicle: saline with Tween-80
[11] = dose: 25.0 mg/kg/injection, schedule: Q01DX009 (ip), vehicle: saline with Tween-80
[12] = dose: 50.0 mg/kg/injection, schedule: Q01DX009 (ip), vehicle: saline with Tween-80
[13] = dose: 50.0 mg/kg/injection, schedule: Q01DX009 (ip), vehicle: Klucel (hydroxypropylcellulose) (HPC)
[14] = dose: 100.0 mg/kg/injection, schedule: Q01DX009 (ip), vehicle: Klucel (hydroxypropylcellulose) (HPC)
[15] = dose: 200.0 mg/kg/injection, schedule: Q01DX009 (ip), vehicle: Klucel (hydroxypropylcellulose) (HPC)
[16] = dose: 100.0 mg/kg/injection, schedule: Q04DX002 (ip), vehicle: saline
[17] = dose: 200.0 mg/kg/injection, schedule: Q04DX002 (ip), vehicle: saline
[18] = dose: 400.0 mg/kg/injection, schedule: Q04DX002 (ip), vehicle: saline

O=C1c2ccccc2C(=O)C1C(=Nc1ccccc1Br)c1ccccc1
T/C [1]: 99 % of control
T/C [2]: 103 % of control
T/C [3]: 103 % of control

O=C(O)CCCNSc1ccccc1[N+](=O)[O-]
T/C (dose: 12.5 mg/kg/injection, schedule: Q01DX009 (ip), vehicle: saline): 100 % of control and 117 % of control
T/C (dose: 25.0 mg/kg/injection, schedule: Q01DX009 (ip), vehicle: saline): 108 % of control and 94 % of control
T/C [4]: 99 % of control and 110 % of control
T/C [5]: 100 % of control and 108 % of control

CC(CC1CCCCC1)NCCC(c1ccccc1)c1ccccc1 (centres undefined)
T/C (dose: 12.5 mg/kg/injection, schedule: Q01DX009 (ip), vehicle: Klucel (hydroxypropylcellulose) (HPC)): 116 % of control
T/C [6]: 100 % of control

Cc1ccc(S(=O)(=O)C(Cl)Cl)cc1
T/C (dose: 50.0 mg/kg/injection, schedule: Q04DX003 (ip), vehicle: saline with Tween-80): 100 % of control and 90 % of control and 93 % of control
T/C (dose: 100.0 mg/kg/injection, schedule: Q04DX003 (ip), vehicle: saline with Tween-80): 111 % of control and 118 % of control and 93 % of control
T/C (dose: 200.0 mg/kg/injection, schedule: Q04DX003 (ip), vehicle: saline with Tween-80): 104 % of control and 93 % of control
T/C (dose: 400.0 mg/kg/injection, schedule: Q04DX003 (ip), vehicle: saline with Tween-80): 102 % of control

COc1nc(N(CCO)c2ccccc2)nc(N(CCO)c2ccccc2)n1
T/C [1]: 96 % of control
T/C [2]: 93 % of control
T/C [3]: 92 % of control

O=C1N=NC2NC=CN3C=CC=C1C23 (centres undefined)
T/C [7]: 102 % of control
T/C [8]: 107 % of control
T/C [9]: 110 % of control

O=[N+]([O-])c1ccc([I+]c2ccccc2)cc1
T/C [10]: 154 % of control
T/C (dose: 25.0 mg/kg/injection, schedule: Q01DX005 (ip), vehicle: saline with Tween-80): 120 % of control and 124 % of control
T/C [11]: 153 % of control
T/C [12]: 153 % of control
T/C [7]: 98 % of control
T/C [2]: 88 % of control

CCOC(=O)c1c(Cl)c(-c2ccccc2)c(=O)n2c1[nH]c1ccccc12
T/C (dose: 100.0 mg/kg/injection, schedule: Q01DX001 (ip), vehicle: saline with Tween-80): 100 % of control
T/C (dose: 200.0 mg/kg/injection, schedule: Q01DX001 (ip), vehicle: saline with Tween-80): 101 % of control
T/C (dose: 400.0 mg/kg/injection, schedule: Q01DX001 (ip), vehicle: saline with Tween-80): 102 % of control

CCCCN1CSC(=S)N(Cc2ccccc2)C1
T/C (dose: 50.0 mg/kg/injection, schedule: Q01DX009 (ip), vehicle: other): 115 % of control
T/C (dose: 100.0 mg/kg/injection, schedule: Q01DX009 (ip), vehicle: other): 108 % of control
T/C (dose: 200.0 mg/kg/injection, schedule: Q01DX009 (ip), vehicle: other): 92 % of control

Cc1cnc(I)[nH]1
T/C (dose: 100.0 mg/kg/injection, schedule: Q01DX001 (ip), vehicle: saline): 102 % of control
T/C (dose: 100.0 mg/kg/injection, schedule: Q04DX003 (ip), vehicle: saline): 107 % of control
T/C (dose: 200.0 mg/kg/injection, schedule: Q01DX001 (ip), vehicle: saline): 105 % of control
T/C (dose: 200.0 mg/kg/injection, schedule: Q04DX003 (ip), vehicle: saline): 112 % of control
T/C (dose: 400.0 mg/kg/injection, schedule: Q04DX003 (ip), vehicle: saline): 92 % of control

Nc1cc(=O)[nH]c(=O)[nH]1
T/C [11]: 99 % of control
T/C [12]: 100 % of control
T/C (dose: 100.0 mg/kg/injection, schedule: Q01DX009 (ip), vehicle: saline with Tween-80): 100 % of control
T/C (dose: 200.0 mg/kg/injection, schedule: Q01DX009 (ip), vehicle: saline with Tween-80): 98 % of control

COC(=O)C(CSCc1ccccc1)NC(=O)CCNC(=O)c1ccccc1 (centres undefined)
T/C (dose: 12.5 mg/kg/injection, schedule: Q01DX009 (ip), vehicle: distilled water + Tween-80): 100 % of control
T/C (dose: 25.0 mg/kg/injection, schedule: Q01DX009 (ip), vehicle: distilled water + Tween-80): 94 % of control
T/C (dose: 50.0 mg/kg/injection, schedule: Q01DX009 (ip), vehicle: distilled water + Tween-80): 98 % of control
T/C (dose: 100.0 mg/kg/injection, schedule: Q01DX009 (ip), vehicle: distilled water + Tween-80): 91 % of control
T/C (dose: 200.0 mg/kg/injection, schedule: Q01DX009 (ip), vehicle: distilled water + Tween-80): 111 % of control

O=C(OC(c1ccccc1)c1ccccc1)c1ccccc1
T/C [4]: 99 % of control
T/C [5]: 108 % of control
T/C (dose: 200.0 mg/kg/injection, schedule: Q01DX009 (ip), vehicle: saline): 102 % of control

O=C1C=C2CCCCCCCCCCC2CC1 (centres undefined)
T/C (dose: 50.0 mg/kg/injection, schedule: Q01DX005 (ip), vehicle: Klucel (hydroxypropylcellulose) (HPC)): 103 % of control
T/C (dose: 100.0 mg/kg/injection, schedule: Q01DX005 (ip), vehicle: Klucel (hydroxypropylcellulose) (HPC)): 92 % of control
T/C (dose: 200.0 mg/kg/injection, schedule: Q01DX005 (ip), vehicle: Klucel (hydroxypropylcellulose) (HPC)): 92 % of control

Nc1ccc(S(=O)(=O)Nc2nc(-c3ccccc3)cc(-c3ccccc3O)n2)cc1
T/C [7]: 96 % of control
T/C [8]: 96 % of control

[Cl][Ge]([Cl])([Cl])[c]1ccccc1
T/C [4]: 100 % of control
T/C [5]: 100 % of control

CCOc1ccc2cc3c(nc2n1)[nH]c1ccccc13
T/C (dose: 100.0 mg/kg/injection, schedule: Q04DX003 (ip), vehicle: Klucel (hydroxypropylcellulose) (HPC)): 103 % of control
T/C (dose: 200.0 mg/kg/injection, schedule: Q04DX003 (ip), vehicle: Klucel (hydroxypropylcellulose) (HPC)): 107 % of control
T/C (dose: 400.0 mg/kg/injection, schedule: Q04DX003 (ip), vehicle: Klucel (hydroxypropylcellulose) (HPC)): 110 % of control

CC1CC(=O)c2cc(-c3ccccc3)oc2C1 (centres undefined)
T/C [13]: 115 % of control
T/C [14]: 102 % of control
T/C [15]: 97 % of control

Cc1ccc2c(c1)nc(N)n2N
T/C (dose: 100.0 mg/kg/injection, schedule: Q01DX001 (ip), vehicle: Klucel (hydroxypropylcellulose) (HPC)): 100 % of control
T/C (dose: 200.0 mg/kg/injection, schedule: Q01DX001 (ip), vehicle: Klucel (hydroxypropylcellulose) (HPC)): 98 % of control
T/C (dose: 400.0 mg/kg/injection, schedule: Q01DX001 (ip), vehicle: Klucel (hydroxypropylcellulose) (HPC)): 89 % of control

BrCCc1ccc2ccccc2c1Br
T/C (dose: 50.0 mg/kg/injection, schedule: Q01DX005 (ip), vehicle: distilled water + Tween-80 + alcohol): 111 % of control
T/C (dose: 100.0 mg/kg/injection, schedule: Q01DX005 (ip), vehicle: distilled water + Tween-80 + alcohol): 109 % of control
T/C (dose: 200.0 mg/kg/injection, schedule: Q01DX005 (ip), vehicle: distilled water + Tween-80 + alcohol): 105 % of control

CC(=N)c1ccc(C)cc1
T/C (dose: 6.25 mg/kg/injection, schedule: Q01DX009 (ip), vehicle: saline with Tween-80): 90 % of control
T/C (dose: 6.25 mg/kg/injection, schedule: Q04DX003 (ip), vehicle: saline with Tween-80): 100 % of control
T/C [10]: 90 % of control
T/C (dose: 12.5 mg/kg/injection, schedule: Q04DX003 (ip), vehicle: saline with Tween-80): 95 % of control
T/C [11]: 104 % of control
T/C (dose: 25.0 mg/kg/injection, schedule: Q04DX003 (ip), vehicle: saline with Tween-80): 100 % of control

C=CCNc1nc2c(s1)c1c(O)c3c(O)c(C)c4c(c32)C(=O)C(C)(O/C=C\C(OC)C(C)C(OC(C)=O)C(C)C(O)C(C)C(O)C(C)/C=C/C=C(/C)C(=O)N1)O4 (centres undefined)
T/C [6]: 98 % of control
T/C [13]: 100 % of control
T/C [14]: 100 % of control
T/C [15]: 94 % of control

CCCCOc1ccc(/C=N/NC(=O)CNC(=O)Nc2cccc([N+](=O)[O-])c2)cc1
T/C (dose: 15.0 mg/kg/injection, schedule: Q01DX005 (ip), vehicle: saline with Tween-80): 98 % of control
T/C (dose: 30.0 mg/kg/injection, schedule: Q01DX005 (ip), vehicle: saline with Tween-80): 89 % of control
T/C [7]: 86 % of control and 87 % of control
T/C [9]: 91 % of control

CC(C)(C)c1cccc(C2(C)C(=O)c3ccccc3C2=O)c1
T/C [16]: 102 % of control
T/C [17]: 101 % of control
T/C [18]: 100 % of control

C=CC(C)(O)/C=C/C=C(\C)C(CC1OC1(C)C)OC(=O)/C(C)=C\C (centres undefined)
T/C [13]: 95 % of control
T/C [14]: 107 % of control

O[C@@H]1CCC[C@@H]2O[C@H]12
T/C [16]: 102 % of control
T/C [17]: 103 % of control
T/C [18]: 109 % of control
